# In patent US20240425464A1, “Substituted Monohydrazides as Potent Antifungal Agents” (University of Kentucky Research Foundation, priority 2023, published 2024):
# Where two headings read alike, the source gives them in different places.
# What was measured:
# Test in all cases: MIC determination by in vitro antifungal assay
# Format in all cases: cell-based
# [1] = test system: Candida glabrata ATCC 2001 (H); conditions: ATCC 2001 in text
# How it was run: (§1)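 Twofold dilutions spanning 0.06–31.3 μg/mL were incubated with fungi for 48 h at 35° C in MOPS-buffered RPMI 1640 (pH 7.0), following modified CLSI M27-A3 and M38-A2 methods. Yeast cells were grown overnight in YPD, set to OD600 0.12 (~1×10^6 CFU/mL), then diluted 1:100.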
# [2] = test system: Candida krusei ATCC 6258 (I)
# How it was run: as §1
# [3] = test system: Candida parapsilosis ATCC 22019 (J)
# How it was run: as §1
# [4] = test system: Aspergillus flavus ATCC MYA-3631 (O); conditions: strain O = A. flavus ATCC MYA-3631
# How it was run: (§2)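 Fungi are exposed to compounds (0.06-31.3 μg/mL, double dilution) in RPMI 1640 adjusted to pH 7.0 with MOPS. Incubation runs 48 h at 35° C, based on CLSI M27-A3/M38-A2. Yeast suspensions start at ˜1×10^6 CFU/mL and are diluted 1:100.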
# [5] = test system: Aspergillus nidulans ATCC 38163 (P)
# How it was run: as §2
# [6] = test system: Aspergillus terreus ATCC MYA-3633 (N); conditions: strain N = A. terreus ATCC MYA-3633
# How it was run: as §2
# [7] = test system: Cryptococcus neoformans ATCC MYA-895 (M); conditions: strain M = C. neoformans ATCC MYA-895
# How it was run: as §1
# [8] = strain H = C. glabrata ATCC 2004 (footnote)
# [9] = strain J = C. parapsilosis ATCC 22019
# [10] = strain P = A. nidulans ATCC 38163
# [11] = Nakaseomyces glabratus, ATCC 2001 / ATCC 2004, strain H = C. glabrata ATCC 2004 (footnote), read-out: MIC
# [12] = Pichia kudriavzevii, ATCC6258, strain I = C. krusei ATCC 6258, read-out: MIC
# [13] = Lodderomyces parapsilosis, ATCC22019, strain J = C. parapsilosis ATCC 22019, read-out: MIC
# [14] = Aspergillus flavus, read-out: MIC
# [15] = Aspergillus nidulans, ATCC38163, strain P = A. nidulans ATCC 38163, read-out: MIC
# [16] = Aspergillus terreus, read-out: MIC
# [17] = Cryptococcus neoformans, read-out: MIC
SMILES,"MIC [1, 8] [μg/mL^−1]",MIC ([2]; strain I = C. krusei ATCC 6258) [μg/mL^−1],"MIC [3, 9] [μg/mL^−1]",MIC [4] [μg/mL^−1],"MIC [5, 10] [μg/mL^−1]",MIC [6] [μg/mL^−1],MIC [7] [μg/mL^−1],"MIC [1, 11] [µg/mL]","MIC [2, 12] [µg/mL]","MIC [3, 13] [µg/mL]","MIC [4, 14] [µg/mL]","MIC [5, 15] [µg/mL]","MIC [6, 16] [µg/mL]","MIC [7, 17] [µg/mL]"
O=C(NNc1cccc(F)c1)c1ccc(Br)cn1 [Compound 4a],>31.3,0.24,7.8,15.6,1.95,0.98,0.06,–,–,–,–,–,–,–
COc1cccc(NNC(=O)c2ccc(Br)cn2)c1 [Compound 4c],–,–,–,–,–,–,–,15.6,0.24,3.9,> 31.3,1.95,3.9,0.49
O=C(NNc1ccc(F)cc1)c1ccc(Br)cn1 [Compound 4d],–,–,–,–,–,–,–,> 31.3,0.98,7.8,15.6,1.95,7.8,0.98
COc1ccc(NNC(=O)c2ccc(Br)cn2)cc1 [Compound 4f],–,–,–,–,–,–,–,1.95,0.98,3.9,> 31.3,15.6,7.8,1.95
O=C(NNc1ccc(F)cc1F)c1ccc(Br)cn1 [Compound 4g],–,–,–,–,–,–,–,7.8,0.49,3.9,> 31.3,3.9,3.9,1.95
O=C(NNc1cccc(F)c1)c1cccc(F)n1 [Compound 5a],31.3,0.24,7.8,>31.3,0.98,1.95,≤0.06,–,–,–,–,–,–,–
O=C(NNc1ccc(F)cc1)c1cccc(F)n1 [Compound 5d],–,–,–,–,–,–,–,15.6,0.49,3.9,7.8,0.98,1.95,0.49
O=C(NNc1ccc(Cl)cc1)c1cccc(F)n1 [Compound 5e],3.9,1.95,15.6,>31.3,7.8,31.3,1.95,–,–,–,–,–,–,–
COc1ccc(NNC(=O)c2cccc(F)n2)cc1 [Compound 5f],–,–,–,–,–,–,–,0.98,0.49,7.8,> 31.3,1.95,15.6,0.24
O=C(NNc1ccc(F)cc1F)c1cccc(F)n1 [Compound 5g],–,–,–,–,–,–,–,31.3,0.98,31.3,31.3,0.49,3.9,0.49
O=C(NNc1cccc(F)c1)c1cccc(Br)n1 [Compound 6a],>31.3,0.49,1.95,31.3,1.95,3.9,≤0.06,–,–,–,–,–,–,–
O=C(NNc1ccc(F)cc1)c1cccc(Br)n1 [Compound 6d],–,–,–,–,–,–,–,> 31.3,0.49,7.8,15.6,0.98,3.9,0.98
COc1ccc(NNC(=O)c2cccc(Br)n2)cc1 [Compound 6f],–,–,–,–,–,–,–,1.95,0.98,3.9,> 31.3,3.9,7.8,1.95
O=C(NNc1cccc(F)c1)c1ncc(F)cc1F [Compound 7a],31.3,0.24,1.95,>31.3,0.98,3.9,≤0.06,–,–,–,–,–,–,–
COc1cccc(NNC(=O)c2ncc(F)cc2F)c1 [Compound 7c],–,–,–,–,–,–,–,15.6,15.6,15.6,> 31.3,15.6,31.3,15.6
O=C(NNc1ccc(F)cc1)c1ncc(F)cc1F [Compound 7d],–,–,–,–,–,–,–,15.6,0.49,3.9,7.8,0.49,3.9,0.49
O=C(NNc1ccc(Cl)cc1)c1ncc(F)cc1F [Compound 7e],3.9,1.95,15.6,>31.3,7.8,>31.3,1.95,–,–,–,–,–,–,–
COc1ccc(NNC(=O)c2ncc(F)cc2F)cc1 [Compound 7f],–,–,–,–,–,–,–,7.8,0.98,7.8,> 31.3,1.95,31.3,1.95
O=C(NNc1ccc(F)cc1F)c1ncc(F)cc1F [Compound 7g],–,–,–,–,–,–,–,> 31.3,0.98,31.3,> 31.3,0.98,7.8,0.98
O=C(NNc1cccc(F)c1)c1nc(F)ccc1F [Compound 8a],15.6,0.49,7.8,>31.3,1.95,3.9,≤0.06,–,–,–,–,–,–,–
COc1cccc(NNC(=O)c2nc(F)ccc2F)c1 [Compound 8c],–,–,–,–,–,–,–,15.6,15.6,7.8,> 31.3,7.8,31.3,7.8
O=C(NNc1ccc(F)cc1)c1nc(F)ccc1F [Compound 8d],–,–,–,–,–,–,–,15.6,0.24,7.8,7.8,0.49,1.95,0.49
O=C(NNc1ccc(Cl)cc1)c1nc(F)ccc1F [Compound 8e],3.9,3.9,15.6,>31.3,7.8,>31.3,1.95,–,–,–,–,–,–,–
COc1ccc(NNC(=O)c2nc(F)ccc2F)cc1 [Compound 8f],–,–,–,–,–,–,–,7.8,0.98,7.8,> 31.3,1.95,31.3,0.98
